Measurements reported in US20230271993A1, “3-DEOXY-2-KETOALDONIC ACID NITROGEN-CONTAINING DERIVATIVE, PREPARATION METHOD THEREOF, AND USE THEREOF” (SICHUAN UNIVERSITY, priority 2020, published 2023).
Read-outs that look alike come from different tables or passages of the source.

Assays:
[1] = tested on: Rhinovirus (HRV-1059)-infected H1 Hela cells; test: Anti-rhinovirus (HRV-1059) activity test, CellTiter-Glo cell viability; format: cell-based, rhinovirus HRV-1059 strain; conditions: 100 TCID50 virus per well, 6 days at 37° C., read-out: IC50 Anti-HRV (H1Hela)
Text: (2) Anti-Rhinovirus (HRV-1059) Activity Test
Test object: Rhinovirus (HRV-1059)-infected H1 Hela cells
Testing method: • (1) H1 Hela cells (purchased from the National Experimental Cell Resource Sharing Platform, Cat. No. 3111C0001CCC000344) were inoculated into a 96-well plate at a concentration of 1.5×10^4 cells/well, and the cell culture medium was DMEM medium (purchased from Gibco, Cat. No. 11995065) containing 10% FBS (purchased from Gibco, Cat. No. 16000044), the plate was placed in a CO2 incubator and incubated at 37° C. for 24 hours. • (2) The original medium in the 96-well plate was discarded, 100 μL of DMEM medium (purchased from Gibco, Cat. No. 11995065) containing 2% FBS (purchased from Gibco, Cat. No. 16000044) was taken and added into the cells. Then the stock solution of the compound to be tested was serially diluted with the above DMEM medium to 800 μM, 266.67 μM, 88.89 μM, 29.63 μM, 9.88 μM, 3.29 μM, 1.10 μM, 0.37 μM, 0.12 μM, 0.04 μM, and 50 μL was added to the cell culture plate. The stock solution of positive compound NITD008 (purchased from MCE Company, Cat. No. HY-12957) was serially diluted with the above DMEM medium to 80 μM, 26.67 μM, 8.89 μM, 2.96 μM, 0.99 μM, 0.33 μM, 0.11 μM, 0.04 μM, 0.012 μM, 0.004 μM, 50 μL was added to the cell culture plate. Finally, 50 μL of the rhinovirus HRV-1059 strain (purchased from ATCC, Cat. No. VR-482) diluted with DMEM medium containing 2% FBS was added to the cells, the amount of virus contained in each well was 100 TCID50. The final concentration of the compound to be tested was 0.25 times of the pretreatment concentration, that was, the initial concentration was 200 μM, the dilution was carried out by 3-fold series, the final concentrations of the compound to be tested were: 200 μM, 66.67 μM, 22.22 μM, 7.41 μM, 2.47 μM, 0.82 μM, 0.27 μM, 0.09 μM, 0.03 μM, 0.01 μM. The final concentrations of the positive compound were: 20 μM, 6.67 μM, 2.22 μM, 0.74 μM, 0.25 μM, 0.082 μM, 0.027 μM, 0.009 μM, 0.003 μM, 0.001 μM. Negative control (to the cell well, DMSO and medium were added, without drug) and positive control (to the cell well, DMSO, medium and virus were added, without drug) were set. The cell culture plates were incubated at 37° C. for 6 days. • (3) The Buffer and the substrate of CellTiter-Glo® Chemiluminescent Cell Viability Assay (purchased from Promega, Cat. No. G7573) was mixed in the dark to obtain a working solution. The working solution was mixed with PBS (purchased from Gibco, Cat. No. 10010049) at a ratio of 4:6. After the medium in the cell culture plate was discarded, 100 μl of detection reagent was added to each well, and the 96-well plate was shaken for 5 min with an orbital shaker to induce cell lysis. After stabilizing the signal in the dark for 2 minutes, a microplate reader (purchased from Molecular Devices, model SpectraMax M5) was used to measure the chemiluminescent units, the plate reading program was the preset program of CellTiter-Glo, and the cell viability was calculated:
Cell viability (%)=(A(drug treatment group)−A(positive control))/(A(negative control)−A(positive control))×[…]
(§1) wherein, A represented the reading of the microplate reader.
(§2) Result evaluation: origin8.0 software was used to carry out the S-type curve fitting on the inhibition rate-concentration, and the IC50 value of the compound to be tested was calculated.

[2] = tested on: Zika virus-infected BHK cells; test: Anti-Zika (ZIKV) virus activity test, CellTiter-Glo cell viability; format: cell-based, Zika virus SZ-SMGC-01 strain; conditions: 100 TCID50 virus per well, 9 days at 37° C.
Description: (1) Anti-Zika (ZIKV) Virus Activity Test
Test object: Zika virus-infected BHK cells
Testing Method: • (1) BBHK cells (preserved by the Academy of Military Medical Sciences) were inoculated into a 96-well plate at a concentration of 5×10^3 cells/well, and the cell culture medium was DMEM medium (purchased from Gibco Company, Cat. No. 11995065) containing 10% FBS (purchased from Gibco, Cat. No. 16000044), the plate was placed in a CO2 incubator, and incubated at 37° C. for 24 hours. • (2) The original medium in the 96-well plate was discarded, 100 μL of DMEM medium (purchased from Gibco, Cat. No. 11995065) containing 2% FBS (purchased from Gibco, Cat. No. 16000044) was taken and added into the cells. Then, the stock solution of the compound to be tested was serially diluted with the above-mentioned DMEM medium to 800 μM, 266.67 μM, 88.89 μM, 29.63 μM, 9.88 μM, 3.29 μM, 1.10 μM, 0.37 μM, and 50 μL was added to the cell culture plate. The stock solution of positive compound NITD008 (purchased from MCE Company, Cat. No. HY-12957) was serially diluted with the above DMEM medium to 80 μM, 26.67 μM, 8.89 μM, 2.96 μM, 0.99 μM, 0.33 μM, 0.11 μM, 0.04 μM, and 50 μL was added to the cell culture plate. Finally, 50 μL of Zika virus SZ-SMGC-01 strain (preserved by the Academy of Military Medical Sciences) diluted in DMEM medium containing 2% FBS was added to the cells, each well contained 100 TCID50 of the virus. The final concentration of the compound to be tested was 0.25 times the pretreatment concentration, that was, the initial concentration was 200 μM, and dilution was carried out by 3-fold series, so that the final concentrations of the compound to be tested were: 200 μM, 66.67 μM, 22.22 μM, 7.41 μM, 2.47 μM, 0.82 μM, 0.27 μM, 0.09 μM. The final concentrations of the positive compound were: 20 μM, 6.67 μM, 2.22 μM, 0.74 μM, 0.25 μM, 0.082 μM, 0.027 μM, 0.009 μM. Negative control (to the cell well, DMSO and culture medium were added, without drug) and positive control (to the cell well, DMSO, culture medium and virus were added, without drug) were set. The cell culture plates were incubated at 37° C. for 9 days. • (3) The Buffer and the substrate of CellTiter-Glo® Chemiluminescent Cell Viability Assay (purchased from Promega, Cat. No. G7573) were mixed in the dark to prepare a working solution. The working solution was mixed with PBS (purchased from Gibco, Cat. No. 10010049) at a ratio of 4:6. After the medium in the cell culture plate was discarded, 100 μl of detection reagent was added to each well, and the 96-well plate was shaken for 5 min with an orbital shaker to induce cell lysis. After stabilizing the signal in the dark for 2 minutes, a microplate reader (purchased from Molecular Devices, model SpectraMax M5) was used to measure the chemiluminescent units, the plate reading program was the preset program of CellTiter-Glo, and the cell viability was calculated:
Cell viability (%)=(A(drug treatment group)−A(positive control))/(A(negative control)−A(positive control))×100%
as §1, §2

[3] = Enterovirus, HRV1059, H1-HeLa, 144 h

Row | Compound | IC50 [1] [µM] | IC50 ([2]; Zika virus, BHK, 216 h) [µM] | IC50 [2] [µM] | IC50 [1, 3] [µM]
1 | COC(=O)[C@@]1(N=[N+]=[N-])OC([C@H](O[Si](C)(C)C(C)(C)C)[C@H]2COC(C)(C)O2)[C@H](NC(C)=O)C(O[Si](C)(C)C(C)(C)C)C1N=[N+]=[N-] (single isomer, unassigned) [Compound 4a] | 4.58 | 1.41 |  | 
2 | COC(=O)[C@@]1(N=[N+]=[N-])OC([C@H](O[Si](C)(C)C(C)(C)C)[C@H]2COC(C)(C)O2)[C@H](NC(C)=O)C(O[Si](C)(C)C(C)(C)C)C1N=[N+]=[N-] (single isomer, unassigned) [Compound 4b] | 18.9 |  | 2.49 | 
3 | COC(=O)[C@@]1(N=[N+]=[N-])OC([C@H](OC(=O)c2ccccc2)[C@@H](COC(=O)c2ccccc2)OC(=O)c2ccccc2)[C@H](NC(C)=O)C(OC(=O)c2ccccc2)C1N=[N+]=[N-] (stereo partly shown) [Compound 6a] |  | 21.7 |  | > 200
4 | COC(=O)[C@]1(N=[N+]=[N-])OC([C@H](OC(=O)c2ccccc2)[C@@H](COC(=O)c2ccccc2)OC(=O)c2ccccc2)[C@H](NC(C)=O)C(OC(=O)c2ccccc2)C1N=[N+]=[N-] (stereo partly shown) [Compound 6b] |  | 10.6 |  | > 200
5 | COC(=O)[C@@]1(N=[N+]=[N-])OC([C@H](OC(=O)c2ccccc2)[C@@H](COC(=O)c2ccccc2)OC(=O)c2ccccc2)[C@H](NC(C)=O)C(OC(=O)c2ccccc2)C1N=[N+]=[N-] (stereo partly shown) [Compound 6c] | > 200 |  | 11 | 
6 | COC(=O)[C@]1(N=[N+]=[N-])OC([C@H](OC(=O)c2ccccc2)[C@@H](COC(=O)c2ccccc2)OC(=O)c2ccccc2)[C@H](NC(C)=O)C(OC(=O)c2ccccc2)C1N=[N+]=[N-] (stereo partly shown) [Compound 6d] | > 200 |  | 10.3 | 
7 | COC(=O)[C@]1(N=[N+]=[N-])OC([C@@H](COC(C)=O)OC(C)=O)[C@H](OC(C)=O)C(OC(C)=O)C1N=[N+]=[N-] (stereo partly shown) [Compound 10a] |  | > 200 |  | 10.8
8 | CC(=O)N[C@@H]1C(OC(=O)c2ccccc2)C(N=[N+]=[N-])[C@@](N=[N+]=[N-])(C(=O)O)OC1[C@H](OC(=O)c1ccccc1)[C@@H](COC(=O)c1ccccc1)OC(=O)c1ccccc1 (stereo partly shown) [Compound 13] |  | 20 |  | 13.3
9 | COC(=O)[C@@]1(N=[N+]=[N-])OC([C@H](OC(=O)c2ccccc2)[C@@H](COC(=O)c2ccccc2)OC(=O)c2ccccc2)[C@H](NC(C)=O)C(OC(=O)c2ccccc2)C1N (stereo partly shown) [Compound 14] |  | 14.6 |  | > 200
10 | CC1(C)OC[C@H](C2O[C@](N=[N+]=[N-])(C(=O)O)C(N=[N+]=[N-])C(O)[C@H]2O)O1 (stereo partly shown) [Compound 19] |  | > 200 |  | 24.6
11 | C#C[C@@]1(O)[C@H](O)[C@@H](CO)O[C@H]1n1ccc2c(N)ncnc21 [NITD008, reference compound] | 0.05 |  | 1 | 
